Here are results for one molecule from patent US20240342185A1, “SMALL MOLECULES INHIBITORS OF CYCLIC GMP-AMP SYNTHASE (cGAS)” (priority 2021, published 2024).

Structures are written as SMILES. Where two headings read alike, the source gives them in different places.

Assay [1] relates to TREX1 KO THP-1 ISG Luc cells. The assay can be described thus: cells. Format: cell-based. The conditions noted are these: Homo sapiens, cell viability, 48 h, read-out: CTG IC50.
Assay [2] addresses cGAS (Homo sapiens, UniProt Q8N884). The experiment in a line: cell-based.
In assay [3] the test system is THP-1 ISG Luc cells. The assay can be described thus: cells. The class given is cell-based. The conditions noted are these: Homo sapiens, THP-1, 48 h, read-out: CTG IC50.
Assay [4] deals with TREX1 KO THP-1 ISG Luc cells. The assay can be described thus: cells. The class given is cell-based. The conditions noted are these: Homo sapiens, 48 h, read-out: ISRE-Luc IC50.

Sequence of cGAS (Q8N884 whole entry): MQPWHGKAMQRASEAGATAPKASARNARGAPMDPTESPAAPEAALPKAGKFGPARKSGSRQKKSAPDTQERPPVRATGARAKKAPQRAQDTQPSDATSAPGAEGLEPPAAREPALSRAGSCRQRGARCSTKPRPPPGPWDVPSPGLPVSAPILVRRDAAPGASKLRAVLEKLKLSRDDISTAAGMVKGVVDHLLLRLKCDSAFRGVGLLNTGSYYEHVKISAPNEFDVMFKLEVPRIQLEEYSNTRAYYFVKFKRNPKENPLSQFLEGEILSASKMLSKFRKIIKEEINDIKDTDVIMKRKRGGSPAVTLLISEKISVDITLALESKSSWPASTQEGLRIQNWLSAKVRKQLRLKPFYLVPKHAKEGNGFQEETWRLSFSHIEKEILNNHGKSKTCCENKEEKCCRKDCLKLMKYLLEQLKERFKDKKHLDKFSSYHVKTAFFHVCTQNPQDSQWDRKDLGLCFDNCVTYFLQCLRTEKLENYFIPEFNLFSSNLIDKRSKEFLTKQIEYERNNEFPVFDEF

With `Nc1cc(C2CCN(C(=O)c3cc4ccccc4[nH]3)CC2)no1` [Compound 2, (4-(5-aminoisoxazol-3-yl)piperidin-1-yl)(1H-indol-2-yl)methanone], the IC50 in assay [1] is more than 10 µM; in assay [2] it was 890 nM; in assay [3], more than 10 µM; in assay [4], 950 nM.
